US20060252744A1 (priority 2005, published 2006)
Read-outs that look alike come from different tables or passages of the source.

How the values were obtained:
[1] = biological target: T1, human D2 receptors (Homo sapiens, UniProt P14416); experiment: competitive radioligand D2 binding assay, (Methoxy-3H)-raclopride, membranes of transfected HEK-293T cells; conditions: mean of one or two experiments; butaclamol as control
T1 construct: expressed in transfected cells; host or cells: HEK-293T

[2] = biological target: human D2 dopamine receptor (Homo sapiens, UniProt P14416); experiment: R-SAT functional receptor assay, D2 receptor co-expressed with Gαo; conditions: for Emax: read-out: % basal response (D2 intrinsic activity); for activity at 1 µM: read-out: D2 basal (basal response, no drug = 100%)
[3] = biological target: human D3 dopamine receptor (Homo sapiens, UniProt P35462); experiment: R-SAT functional receptor assay, D3 receptor co-expressed with Gαo; conditions: for activity at 1 µM: read-out: D3 basal (basal response, no drug = 100%)
[4] = steady state kinetics in humans given clozapine; cited from earlier work
[5] = compounds at 1 μM, mean +/− standard error, R-SAT

human D3 dopamine receptor, sequence (P35462 whole entry): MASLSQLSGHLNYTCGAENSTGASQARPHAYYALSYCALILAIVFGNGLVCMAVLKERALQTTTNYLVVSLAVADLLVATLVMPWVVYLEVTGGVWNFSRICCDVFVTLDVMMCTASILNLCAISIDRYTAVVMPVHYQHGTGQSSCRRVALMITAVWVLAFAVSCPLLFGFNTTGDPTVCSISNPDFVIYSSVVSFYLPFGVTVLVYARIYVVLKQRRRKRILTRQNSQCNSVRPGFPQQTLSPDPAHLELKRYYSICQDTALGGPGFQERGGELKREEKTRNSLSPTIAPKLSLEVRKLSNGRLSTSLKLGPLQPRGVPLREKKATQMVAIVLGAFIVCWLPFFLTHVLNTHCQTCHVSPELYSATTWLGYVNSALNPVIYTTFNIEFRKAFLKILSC
T1 sequence (P14416 whole entry): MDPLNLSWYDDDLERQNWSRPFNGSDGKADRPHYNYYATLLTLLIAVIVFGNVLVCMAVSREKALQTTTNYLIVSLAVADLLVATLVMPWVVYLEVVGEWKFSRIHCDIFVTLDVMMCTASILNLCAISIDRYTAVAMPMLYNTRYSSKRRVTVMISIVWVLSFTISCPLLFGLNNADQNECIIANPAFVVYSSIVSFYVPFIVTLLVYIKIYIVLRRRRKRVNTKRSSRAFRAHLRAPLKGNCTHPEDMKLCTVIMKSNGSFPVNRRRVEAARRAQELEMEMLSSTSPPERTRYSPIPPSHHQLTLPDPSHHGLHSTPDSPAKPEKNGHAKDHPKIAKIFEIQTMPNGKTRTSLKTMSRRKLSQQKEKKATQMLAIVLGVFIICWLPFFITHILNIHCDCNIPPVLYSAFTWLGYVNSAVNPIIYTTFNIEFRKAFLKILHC
human D2 dopamine receptor, sequence (P14416 whole entry): as above

## Fc1ccc2c(c1)N=C(N1CCNCC1)c1ccccc1O2
[1]
  Ki: 501 nM
[2]
  Emax: 207%

## CC(C)(C)[C@]1(O)CCN2C[C@H]3c4ccccc4CCc4cccc(c43)[C@@H]2C1 [butaclamol]
[2]; [5]
  D2 basal (basal response, no drug = 100%): 60 +/− 2%

## OCCN1CCN([C@@H]2C[C@@H](c3ccc(F)cc3)c3ccc(C(F)(F)F)cc32)CC1 (racemic) [tefludazine]
[2]
  activity at 1 µM: 67%
[3]
  activity at 1 µM: 47%

## Clc1ccc2c(c1)N=C(N1CCNCC1)c1ccccc1C2
[1]
  Ki: 12.6 nM
[2]
  Emax: 260%

## CCN1CCC[C@H]1CNC(=O)c1c(O)c(Cl)cc(Cl)c1OC (racemic) [S(−)-raclopride]
[2]; [5]
  D2 basal (basal response, no drug = 100%): 60− %
[3]; [5]
  D3 basal (basal response, no drug = 100%): 56− %

## O=C1Cc2cc(CCN3CCN(c4nsc5ccccc45)CC3)c(Cl)cc2N1 [ziprasidone]
[2]; [5]
  D2 basal (basal response, no drug = 100%): 66 +/− 8%

## Brc1ccc2c(c1)N=C(N1CCNCC1)c1ccccc1O2
[1]
  Ki: 126 nM
[2]
  Emax: 155%

## Cc1ccc(C2(O)CCN(CCCC(=O)c3ccc(F)cc3)CC2)cc1 [moperone]
[2]
  activity at 1 µM: 64%
[3]
  activity at 1 µM: 52%

## Cc1cccc2c1Oc1ccc(Cl)cc1N=C2N1CCNCC1
[1]
  Ki: 316 nM
[2]
  Emax: 106%

## Cc1cccc2c1Oc1ccc(Br)cc1N=C2N1CCNCC1
[1]
  Ki: 794 nM
[2]
  Emax: 112%

## Cc1cc2c(s1)Nc1ccccc1N=C2N1CCN(C)CC1 [olanzapine]
[2]
  D2 basal (basal response, no drug = 100%): 83 +/− 6%
[3]; [5]
  D3 basal (basal response, no drug = 100%): 83 +/− 6%

## CCc1c(C)[nH]c2c1C(=O)C(CN1CCOCC1)CC2 (stereo not shown) [molindone]
[2]
  activity at 1 µM: 70%
[3]
  activity at 1 µM: 65%

## Clc1ccc2c(c1)N=C(N1CCNCC1)c1ccccc1N2 [N-desmethylclozapine, 8-chloro-11-(1-piperazinyl)-5H-dibenzo[b,e][1,4]diazepine]
[4]
  share of NDMC in total serum clozapine concentrations: 40-75%
[2]
  EC50: 31.6 nM
[2]; R-SAT
  intrinsic activity at D2 receptor (in words): partial agonist
  relative efficacy to pergolide at D2: 34%
[2]; [5]
  D2 basal (basal response, no drug = 100%): 229 +/− 21%
[3]
  EC50: 100 nM
  activity at 1 µM: 188%
[3]; R-SAT
  intrinsic activity at D3 receptor (in words): partial agonist
  relative efficacy to pergolide at D3: 40%

## CN1CCN(CC/C=C2/c3ccccc3Sc3ccc(S(=O)(=O)N(C)C)cc32)CC1 [thiothixene]
[2]
  activity at 1 µM: 73%
[3]
  activity at 1 µM: 68%

## Brc1ccc2c(c1)N=C(N1CCNCC1)c1ccccc1N2
[1]
  Ki: 158 nM
[2]
  Emax: 147%

## OCCN1CCN(CCCN2c3ccccc3Sc3ccc(C(F)(F)F)cc32)CC1 [fluphenazine]
[2]
  activity at 1 µM: 61%
[3]
  activity at 1 µM: 55%

## CN1CCN(C2=Nc3ccccc3Cc3ccccc32)CC1 [perlapine]
[2]
  activity at 1 µM: 58%
[3]
  activity at 1 µM: 74%

## Brc1ccc2c(c1)N=C(N1CCNCC1)CCN2
[2]
  Emax: 142%

## O=C1NCCN1CCN1CCC(c2cn(-c3ccc(F)cc3)c3ccc(Cl)cc23)CC1 [sertindole]
[2]
  activity at 1 µM: 61%

## O=C(CCCN1CCC2(CC1)C(=O)NCN2c1ccccc1)c1ccc(F)cc1 [spiperone]
[2]
  D2 basal (basal response, no drug = 100%): 51 +/− 1%

## CSc1ccc2c(c1)N(CCC1CCCCN1C)c1ccccc1S2 (stereo not shown) [thioridazine]
[2]
  activity at 1 µM: 81%
[3]
  activity at 1 µM: 81%

## Clc1ccc2c(c1)N=C(NC[C@@H]1CCCN1)c1ccccc1N2
[1]
  Ki: 1580 nM
[2]
  Emax: 105%

## Clc1ccc2c(c1)N=C(N1CC3CC1CN3)c1ccccc1N2 (stereo not shown)
[1]
  Ki: 2510 nM
[2]
  Emax: 116%

## N#Cc1ccc2c(c1)N=C(N1CCNCC1)c1ccccc1N2
[1]
  Ki: 5010 nM
[2]
  Emax: 201%

## Cc1nc2n(c(=O)c1CCN1CCC(c3noc4cc(F)ccc34)CC1)CCCC2 [risperidone]
[2]
  D2 basal (basal response, no drug = 100%): 63 +/− 2%

## O=C1NCN(c2ccccc2)C12CCN(CCCC(c1ccc(F)cc1)c1ccc(F)cc1)CC2 [fluspirilene]
[2]
  activity at 1 µM: 52%
[3]
  activity at 1 µM: 45%

## CCN1CCCC1CNC(=O)c1cc(S(N)(=O)=O)ccc1OC (stereo not shown) [sulpiride]
[2]
  activity at 1 µM: 59%
[3]; [5]
  D3 basal (basal response, no drug = 100%): 55 +/− 9%

## CC1CCN(CCCC(=O)c2ccc(F)cc2)CC1 [melperone]
[2]
  activity at 1 µM: 76%
[3]
  activity at 1 µM: 75%

## Fc1ccc2c(c1)N=C(N1CCNCC1)c1ccccc1N2
[1]
  Ki: 2510 nM
[2]
  Emax: 170%

## Cc1cccc2c1Nc1ccc(Cl)cc1N=C2N1CCNCC1
[1]
  Ki: 6310 nM
[2]
  Emax: 102%

## CN1CCN(CCCN2c3ccccc3Sc3ccc(C(F)(F)F)cc32)CC1 [trifluoperazine]
[2]
  activity at 1 µM: 58%

## O=c1[nH]c2ccccc2n1C1CCN(CCCC(c2ccc(F)cc2)c2ccc(F)cc2)CC1 [pimozide]
[2]
  activity at 1 µM: 43%
[3]
  activity at 1 µM: 54%

## Cc1nc2c(C)cccn2c(=O)c1CCN1CCC(c2noc3cc(F)ccc23)CC1 [ocaperiodone]
[2]; [5]
  D2 basal (basal response, no drug = 100%): 62 +/− 8%
[3]; [5]
  D3 basal (basal response, no drug = 100%): 51 +/− 10%

## CN1c2ccc(Cl)cc2N=C(N2CCNCC2)c2ccccc21
[1]
  Ki: 794 nM
[2]
  Emax: 141%

## Clc1ccc2c(c1)N=C(N1CCNCC1)c1ccccc1O2
[1]
  Ki: 251 nM
[2]
  Emax: 150%

## Cc1cccc2c1Oc1ccc(C(F)(F)F)cc1N=C2N1CCNCC1
[1]
  Ki: 2510 nM
[2]
  Emax: 118%

## O=C(CCCN1CCC(O)(c2cccc(C(F)(F)F)c2)CC1)c1ccc(F)cc1 [trifluperidol]
[2]
  activity at 1 µM: 58%
[3]
  activity at 1 µM: 54%

## OCCN1CCN(CC/C=C2\c3ccccc3Sc3ccc(C(F)(F)F)cc32)CC1 [trans-(e)-flupenthixol]
[2]
  D2 basal (basal response, no drug = 100%): 68 +/− 4%

## CN1CCN(CCCN2c3ccccc3Sc3ccc(Cl)cc32)CC1 [prochlorperazine]
[2]
  activity at 1 µM: 57%
[3]
  activity at 1 µM: 53%

## CN(C)CCCN1c2ccccc2Sc2ccccc21 [promazine]
[2]
  activity at 1 µM: 76%
[3]
  activity at 1 µM: 83%

## CCN(CC)CCCN1c2ccccc2Sc2ccc(Cl)cc21 [chlorproethazine]
[2]; [5]
  D2 basal (basal response, no drug = 100%): 60 +/− 7%
[3]; [5]
  D3 basal (basal response, no drug = 100%): 63 +/− 10%

## OCCN1CCN(CC/C=C2/c3ccccc3Sc3ccc(C(F)(F)F)cc32)CC1 [cis-flupenthixol]
[2]
  D2 basal (basal response, no drug = 100%): 59 +/− 4%

## CCN(CC)CCNC(=O)c1cc(S(C)(=O)=O)ccc1OC [tiapride]
[2]
  activity at 1 µM: 65%
[3]
  activity at 1 µM: 57%

## Cc1cccc2c1Oc1ccc(F)cc1N=C2N1CCNCC1
[1]
  Ki: 316 nM
[2]
  Emax: 126%

## Clc1ccc2c(c1)N=C(N1CCCNCC1)c1ccccc1N2
[1]
  Ki: 2000 nM
[2]
  Emax: 172%

## CN1CCN(C2Cc3ccccc3Sc3ccc(Cl)cc32)CC1.O=C(O)/C=C\C(=O)O (stereo not shown) [octoclothepin]
[3]
  D3 basal (basal response, no drug = 100%): 60 +/− 8%

## O=C(CCCN1CCC(O)(c2ccc(Br)cc2)CC1)c1ccc(F)cc1 [bromperidol]
[2]
  activity at 1 µM: 46%
[3]
  activity at 1 µM: 43%
